In assay [1] the test system is B16 tumors. Briefly: B16 tumor challenge in mice treated with chlorambucil. Format: in vivo, mouse. The text has this:
Mice and in vivo treatments: Wild-type (WT) C57BL/6 mice NSG were purchased from Jackson Labs (Bar Harbor, ME), bred in our animal facility and used at 7-20 weeks old. All mice were given ad libitum water and food and housed under specific pathogen-free conditions. Mice used here were matched for sex and age in each experiment. 1×10^5 control or PD-L1^KOB16 cells were given subcutaneously (SQ, both sexes). 4×10^6 control or PD-L1^lo ID8agg cells in log growth phase were given intraperitoneally (females only). B16 tumor growth was measured with Vernier calipers and volume was calculated as (length×width^2)/2. Intraperitoneal ID8agg tumor growth was determined by IVIS Lumina Imaging System (Perkin Elmer; Waltham, MA) 15 minutes after i.p. injection of 3 mg of PBS-dissolved d-luciferin K+ (Gold Biotechnology; St. Louis, MO) with 30 second exposures, medium binning, and F/stop=1. Identical regions of interest were drawn over each subject's abdomen and average radiance (photons/see/cm2/sr) was quantified with Living Image software version 4.2. Body weight was measured every week for PD-L1^lo ID8agg mice as a surrogate for tumor growth, and tumors were weighed at end-experiment in confirmation. Survival was determined as >1500 mm^3 for SQ tumors and distress or >20% mouse weight gain for PD-L1^lo ID8agg tumors. […]

The test system of assay [2] is ID8agg tumors. Format: in vivo, mouse. The source says: Mice and in vivo treatments: Wild-type (WT) C57BL/6 mice NSG were purchased from Jackson Labs (Bar Harbor, ME), bred in our animal facility and used at 7-20 weeks old. All mice were given ad libitum water and food and housed under specific pathogen-free conditions. Mice used here were matched for sex and age in each experiment. 1×10^5 control or PD-L1^KOB16 cells were given subcutaneously (SQ, both sexes). 4×10^6 control or PD-L1^lo ID8agg cells in log growth phase were given intraperitoneally (females only). B16 tumor growth was measured with Vernier calipers and volume was calculated as (length×width^2)/2. Intraperitoneal ID8agg tumor growth was determined by IVIS Lumina Imaging System (Perkin Elmer; Waltham, MA) 15 minutes after i.p. injection of 3 mg of PBS-dissolved d-luciferin K+ (Gold Biotechnology; St. Louis, MO) with 30 second exposures, medium binning, and F/stop=1. Identical regions of interest were drawn over each subject's abdomen and average radiance (photons/see/cm2/sr) was quantified with Living Image software version 4.2. Body weight was measured every week for PD-L1^lo ID8agg mice as a surrogate for tumor growth, and tumors were weighed at end-experiment in confirmation. Survival was determined as >1500 mm^3 for SQ tumors and distress or >20% mouse weight gain for PD-L1^lo ID8agg tumors. Intraperitoneal injection of chlorambucil was given at indicated doses (optimized for each tumor and treatment condition in preliminary assessments not shown) for 3 treatment cycles starting 7 days after tumor cell challenge. Each chlorambucil cycle was 5 consecutive days of a single injection followed by two days of rest. αPD-L1 (clone 10F.9G2) or respective isotype control was injected intraperitoneally at 100 μg/mouse every 5 days starting on day 7 after tumor challenge for times indicated.

For `O=C(O)CCCc1ccc(N(CCCl)CCCl)cc1` [chlorambucil], the “treatment efficacy in PD-L1^KO B16 challenge” value in assay [1] (WT mice) is recorded as “significantly reduced”. For the same molecule, the treatment of tumors result in assay [1] (severely immunodeficient NSG mice, B16) is reported as “effectively treated both”; in assay [2] (severely immunodeficient NSG mice, ID8agg), “effectively treated both”. Besides, the “sensitization of ID8agg to αPD-L1” value in assay [2] (CAMB dose ineffective as a single agent) is “sensitized ID8agg to αPD-L1”. For the same molecule, the “tumor PD-L1 in vivo” value in assay [2] (ID8agg challenge, ascites) is “reduced tumor PD-L1 in ascites”. Moreover, the “PD-L1^lo ID8agg growth” value in assay [2] (WT mice, dose and schedule as for ID8agg) was “unable to suppress”. In assay [2] (mouse, in vivo), the “single agent efficacy at the dose used for the combination” value is “ineffective as a single agent”. For the same molecule, in assay [2] (wild type mice, ID8agg), the mouse survival result is recorded as “prolonged mouse survival”. Moreover, the tumor volume result in assay [2] (wild type mice, ID8agg) is listed as “significantly reduced tumor volume”.

These data come from patent publication US12404332B2, “Methods for diagnosing and treating cancers” (Research Development Foundation, priority 2020, dated 2025).
